Measurements as given in PMC6684654 (Nature Communications, 2019).
Converted amounts (≈) assume the structure as drawn.

What was measured:
Experiment in all cases: Antibiotic susceptibility (MIC), automated identification system
Type in all cases: cell-based
[1] = system: NDM-1 K. pneumoniae XJ155020; details: Supplementary Table 2; for MIC: Klebsiella pneumoniae
Excerpt: (§1) Clinical isolate strains were identified and screened by the Phoenix 100 automated bacterial identification system to rapidly detect antimicrobial resistance. Total DNA was extracted by the TIANamp Bacteria DNA Kit according to the manufacturer’s protocol. The presence of blaNDM-1 was confirmed using a diagnostic kit for NDM-1 (Puruikang Bio Inc., Shenzhen, China) based on fluorescent quantitative polymerase chain reaction assay. According to the instruction, Ct values of less than 37 were considered positive.

[2] = system: NDM-1 K. pneumoniae XJ155018; details: Supplementary Table 2; for MIC: Klebsiella pneumoniae
Excerpt: as §1

[3] = system: NDM-1 K. pneumoniae XJ155017; details: Supplementary Table 2; for MIC: Klebsiella pneumoniae
Excerpt: as §1

[4] = system: NDM-1 K. pneumoniae XJ155019; details: Supplementary Table 2; for MIC: Klebsiella pneumoniae
Excerpt: as §1

[5] = system: NDM-1 E. coli XJ141047; details: Supplementary Table 1; for MIC: Escherichia coli
Excerpt: as §1

[6] = system: NDM-1 E. coli XJ141026; details: Supplementary Table 1; for MIC: Escherichia coli
Excerpt: as §1

[7] = system: E. coli ATCC25922; details: Supplementary Table 1; for MIC: Escherichia coli, ATCC25922
Excerpt: as §1

[8] = system: NDM-1 E. coli XJ141015; details: Supplementary Table 1; for MIC: Escherichia coli
Excerpt: as §1

[9] = system: K. pneumoniae ATCC13883; details: Supplementary Table 2; for MIC: Klebsiella pneumoniae, ATCC13883
Excerpt: as §1

| Compound | MIC [1] [µg/mL] | susceptibility class (MIC) [1] | MIC [2] [µg/mL] | susceptibility class (MIC) [2] | MIC [3] [µg/mL] | susceptibility class (MIC) [3] | MIC [4] [µg/mL] | susceptibility class (MIC) [4] | MIC [5] [µg/mL] | susceptibility class (MIC) [5] | MIC [6] [µg/mL] | susceptibility class (MIC) [6] | MIC [7] [µg/mL] | susceptibility class (MIC) [7] | MIC [8] [µg/mL] | susceptibility class (MIC) [8] | MIC [9] [µg/mL] | susceptibility class (MIC) [9] |
| --- | --- | --- | --- | --- | --- | --- | --- | --- | --- | --- | --- | --- | --- | --- | --- | --- | --- | --- |
| NCC[C@H](O)C(=O)N[C@@H]1C[C@H](N)[C@@H](O[C@H]2O[C@H](CN)[C@@H](O)[C@H](O)[C@H]2O)[C@H](O)[C@H]1O[C@H]1O[C@H](CO)[C@@H](O)[C@H](N)[C@H]1O [Amikacin] | ≤ 8 | S | ≤ 8 | S | ≤ 8 | S | ≤ 8 | S | ≤ 8 | S | ≤ 8 | S | ≤ 8 | S | ≤ 8 | S | ≤ 8 | S |
| CC1(C)S[C@@H]2[C@H](NC(=O)[C@H](N)c3ccccc3)C(=O)N2[C@H]1C(=O)O [Ampicillin] | > 16 | R | > 16 | R | > 16 | R | > 16 | R | > 16 | R | > 16 | R | ≤ 4 | S | > 16 | R | 16 (≈ 45.8 µM) | R |
| CN(C)[C@@H]1C(O)=C(C(N)=O)C(=O)[C@@]2(O)C(O)=C3C(=O)c4c(O)cccc4[C@@](C)(O)[C@H]3C[C@@H]12 [Tetracycline] | > 8 | R | > 8 | R | 4 (≈ 9 µM) | S | > 8 | R | ≤ 2 | S | > 8 | R | ≤ 2 | S | ≤ 2 | S | ≤ 2 | S |
| COc1c(N2C[C@@H]3CCCN[C@@H]3C2)c(F)cc2c(=O)c(C(=O)O)cn(C3CC3)c12 [Moxifloxacin] | > 4 | R | > 4 | R | > 4 | R | > 4 | R | ≤ 1 | S | > 4 | R | ≤ 1 | S | > 4 | R | ≤ 1 | S |
| C[C@H]1[C@H](NC(=O)/C(=N\OC(C)(C)C(=O)O)c2csc(N)n2)C(=O)N1S(=O)(=O)O [Aztreonam] | > 16 | R | > 16 | R | > 16 | R | > 16 | R | > 16 | R | > 16 | R | ≤ 2 | S | > 16 | R | ≤ 2 | S |
| CNC(C)C1CCC(N)C(OC2C(N)CC(N)C(OC3OCC(C)(O)C(NC)C3O)C2O)O1 (stereo not drawn) [Gentamicin] | ≤ 2 | S | ≤ 2 | S | ≤ 2 | S | ≤ 2 | S | > 8 | R | > 8 | R | ≤ 2 | S | ≤ 2 | S | ≤ 2 | S |
